Reference: patent US20050182025A1, “Amidinylphenyl compounds and their use as fungicides” (priority 2002, published 2005)

Columns and labels:
Format in all cases: in vivo
Septoria nodorum = assay: Test C: preventive spray on wheat seedlings, Septoria glume blotch, disease rating; settings: wheat seedlings sprayed to run-off, inoculated the following day with Septoria nodorum, 48 h saturated atmosphere then 9 days at 20° C.; test concentration not given
Excerpt: (§1) General protocol for preparing test suspensions: Test compounds were first dissolved in acetone in an amount equal to 3% of the final volume and then suspended at the desired concentration (in ppm) in acetone and purified water (50/50 mix) containing 250 ppm of the surfactant Trem® 014 (polyhydric alcohol esters). The resulting test suspensions were then used in the following tests. Spraying a 200 ppm test suspension to the point of run-off on the test plants was the equivalent of a rate of 500 g/ha. The test suspension was sprayed to the point of run-off on wheat seedlings. The following day the seedlings were inoculated with a spore suspension of Septoria nodorum (the causal agent of Septoria glume blotch) and incubated in a saturated atmosphere at 20° C. for 48 h, and then moved to a growth chamber at 20° C. for 9 days, after which disease ratings were made. Results for Tests A-C are given in Table A. In the table, a rating of 100 indicates 100% disease control and a rating of 0 indicates no disease control (relative to the controls). A dash (-) indicates no test results.

[1] = tested on: Erysiphe graminis f. sp. tritici; assay: Test A: preventive spray on wheat seedlings, wheat powdery mildew, disease rating; settings: wheat seedlings sprayed to run-off, inoculated the following day with Erysiphe graminis f. sp. tritici, rated after 7 days at 20° C.; test concentration not given
Excerpt: as §1, with “spore dust” for “spore suspension”, “of Erysiphe graminis f. sp. tritici,” for “of Septoria nodorum”, “of wheat powdery mildew)” for “of Septoria glume blotch)”, “in” for “in a saturated atmosphere at 20° C. for 48 h, and then moved to”, “for 7” for “for 9”

Puccinia recondita = assay: Test B: preventive spray on wheat seedlings, wheat leaf rust, disease rating; settings: wheat seedlings sprayed to run-off, inoculated the following day with Puccinia recondita, 24 h saturated atmosphere then 6 days at 20° C.; test concentration not given
Excerpt: as §1, with “Puccinia recondita” for “Septoria nodorum”, “wheat leaf rust)” for “Septoria glume blotch)”, “24” for “48”, “6” for “9”

Cc1c(N=CN(C)C)cc(Cl)c(OCCCC(C)C)c1Cl [compound 115]
Test C disease control rating (100 = 100% disease control, 0 = no disease control relative to the controls) (Septoria nodorum): 100%
Test A disease control rating (100 = 100% disease control, 0 = no disease control relative to the controls) [1]: 85%
Test B disease control rating (100 = 100% disease control, 0 = no disease control relative to the controls) (Puccinia recondita): 85%

CCCCCCCCCOc1cc(C)c(N=CN(C)C)cc1C [Compound 23]
Test C disease control rating (100 = 100% disease control, 0 = no disease control relative to the controls) (Septoria nodorum): 13%
Test A disease control rating (100 = 100% disease control, 0 = no disease control relative to the controls) [1]: 97%
Test B disease control rating (100 = 100% disease control, 0 = no disease control relative to the controls) (Puccinia recondita): 98%

Cc1cc(OCCC[Si](C)(C)C)c(Cl)cc1N=CN(C)C [compound 172]
Test C disease control rating (100 = 100% disease control, 0 = no disease control relative to the controls) (Septoria nodorum): 100%
Test A disease control rating (100 = 100% disease control, 0 = no disease control relative to the controls) [1]: 100%
Test B disease control rating (100 = 100% disease control, 0 = no disease control relative to the controls) (Puccinia recondita): 100%

CCN(CC)C(=S)Nc1cc(Cl)c(OCCCC(C)(C)C)cc1C [compound 177]
Test C disease control rating (100 = 100% disease control, 0 = no disease control relative to the controls) (Septoria nodorum): 100%
Test A disease control rating (100 = 100% disease control, 0 = no disease control relative to the controls) [1]: 96%
Test B disease control rating (100 = 100% disease control, 0 = no disease control relative to the controls) (Puccinia recondita): 100%

Cc1cc(OCCCCC(C)C)c(C)cc1N=CN(C)C [Compound 48]
Test C disease control rating (100 = 100% disease control, 0 = no disease control relative to the controls) (Septoria nodorum): 96%
Test A disease control rating (100 = 100% disease control, 0 = no disease control relative to the controls) [1]: 99%
Test B disease control rating (100 = 100% disease control, 0 = no disease control relative to the controls) (Puccinia recondita): 100%

CN(C)C(=S)Nc1cc(Cl)c(OCCC[Si](C)(C)C)cc1Cl [compound 183]
Test C disease control rating (100 = 100% disease control, 0 = no disease control relative to the controls) (Septoria nodorum): 90%
Test A disease control rating (100 = 100% disease control, 0 = no disease control relative to the controls) [1]: 99%
Test B disease control rating (100 = 100% disease control, 0 = no disease control relative to the controls) (Puccinia recondita): 85%

Cc1c(NC(=S)N(C)C)cc(Cl)c(OCCCC(C)(C)C)c1Cl [compound 121]
Test C disease control rating (100 = 100% disease control, 0 = no disease control relative to the controls) (Septoria nodorum): 67%
Test A disease control rating (100 = 100% disease control, 0 = no disease control relative to the controls) [1]: 49%
Test B disease control rating (100 = 100% disease control, 0 = no disease control relative to the controls) (Puccinia recondita): 85%

COC(C)(C)CCCOc1cc(C)c(N=CN(C)C)cc1C [Compound 43]
Test C disease control rating (100 = 100% disease control, 0 = no disease control relative to the controls) (Septoria nodorum): 93%
Test A disease control rating (100 = 100% disease control, 0 = no disease control relative to the controls) [1]: 96%
Test B disease control rating (100 = 100% disease control, 0 = no disease control relative to the controls) (Puccinia recondita): 100%

CCN(CC)C(=S)Nc1cc(C)c(OCCCC(C)(C)C)cc1C [compound 191]
Test C disease control rating (100 = 100% disease control, 0 = no disease control relative to the controls) (Septoria nodorum): 91%
Test A disease control rating (100 = 100% disease control, 0 = no disease control relative to the controls) [1]: 63%
Test B disease control rating (100 = 100% disease control, 0 = no disease control relative to the controls) (Puccinia recondita): 99%

CCN(C)C(=S)Nc1cc(Cl)c(OCCC[Si](C)(C)C)cc1C [compound 169]
Test C disease control rating (100 = 100% disease control, 0 = no disease control relative to the controls) (Septoria nodorum): 100%
Test A disease control rating (100 = 100% disease control, 0 = no disease control relative to the controls) [1]: 99%
Test B disease control rating (100 = 100% disease control, 0 = no disease control relative to the controls) (Puccinia recondita): 100%

CCC(CC)Oc1cc(C)c(N=CN(C)C)cc1C [Compound 34]
Test C disease control rating (100 = 100% disease control, 0 = no disease control relative to the controls) (Septoria nodorum): 0%
Test A disease control rating (100 = 100% disease control, 0 = no disease control relative to the controls) [1]: 96%
Test B disease control rating (100 = 100% disease control, 0 = no disease control relative to the controls) (Puccinia recondita): 100%

CCN(C)C(=S)Nc1cc(C)c(OCCC[Si](C)(C)CC)cc1C [compound 77]
Test C disease control rating (100 = 100% disease control, 0 = no disease control relative to the controls) (Septoria nodorum): 100%
Test A disease control rating (100 = 100% disease control, 0 = no disease control relative to the controls) [1]: 100%
Test B disease control rating (100 = 100% disease control, 0 = no disease control relative to the controls) (Puccinia recondita): 100%

Cc1cc(NC(=S)N(C)C)c(C)c(Cl)c1OCCC[Si](C)(C)C [compound 133]
Test C disease control rating (100 = 100% disease control, 0 = no disease control relative to the controls) (Septoria nodorum): 53%
Test A disease control rating (100 = 100% disease control, 0 = no disease control relative to the controls) [1]: 99%
Test B disease control rating (100 = 100% disease control, 0 = no disease control relative to the controls) (Puccinia recondita): 85%

CCCC(CCC)Oc1cc(C)c(N=CN(C)C)cc1C [Compound 36]
Test C disease control rating (100 = 100% disease control, 0 = no disease control relative to the controls) (Septoria nodorum): 0%
Test A disease control rating (100 = 100% disease control, 0 = no disease control relative to the controls) [1]: 88%
Test B disease control rating (100 = 100% disease control, 0 = no disease control relative to the controls) (Puccinia recondita): 100%

Cc1cc(OCCCC(C)C)c(C)cc1N=CN(C)C [Compound 13, N′-[2,5-Dimethyl-4-[(4-methylpentyl)oxy]-phenyl]-N,N-dimethylmethanimidamide]
Test C disease control rating (100 = 100% disease control, 0 = no disease control relative to the controls) (Septoria nodorum): 100%
Test A disease control rating (100 = 100% disease control, 0 = no disease control relative to the controls) [1]: 97%
Test B disease control rating (100 = 100% disease control, 0 = no disease control relative to the controls) (Puccinia recondita): 100%

Cc1cc(NC(CCC(C)C)CCC(C)C)c(C)cc1N=CN(C)C [compound 151]
Test C disease control rating (100 = 100% disease control, 0 = no disease control relative to the controls) (Septoria nodorum): 60%
Test A disease control rating (100 = 100% disease control, 0 = no disease control relative to the controls) [1]: 0%
Test B disease control rating (100 = 100% disease control, 0 = no disease control relative to the controls) (Puccinia recondita): 0%

CCN(C)C(=S)Nc1cc(Cl)c(OCCC[Si](C)(C)C)c(Cl)c1C [compound 181]
Test C disease control rating (100 = 100% disease control, 0 = no disease control relative to the controls) (Septoria nodorum): 67%
Test A disease control rating (100 = 100% disease control, 0 = no disease control relative to the controls) [1]: 100%
Test B disease control rating (100 = 100% disease control, 0 = no disease control relative to the controls) (Puccinia recondita): 100%

CC(C)=CCC[C@H](C)CCOc1cc(C)c(N=CN(C)C)cc1C [Compound 14]
Test C disease control rating (100 = 100% disease control, 0 = no disease control relative to the controls) (Septoria nodorum): 0%
Test A disease control rating (100 = 100% disease control, 0 = no disease control relative to the controls) [1]: 90%
Test B disease control rating (100 = 100% disease control, 0 = no disease control relative to the controls) (Puccinia recondita): 100%

CCN(C)C(=S)Nc1cc(Cl)c(OCCCC(C)(C)C)cc1Cl [compound 187]
Test C disease control rating (100 = 100% disease control, 0 = no disease control relative to the controls) (Septoria nodorum): 78%
Test A disease control rating (100 = 100% disease control, 0 = no disease control relative to the controls) [1]: 100%
Test B disease control rating (100 = 100% disease control, 0 = no disease control relative to the controls) (Puccinia recondita): 99%

Cc1c(NC(=S)N(C)C)cc(Cl)c(OCCCC(C)C)c1Cl [compound 119]
Test C disease control rating (100 = 100% disease control, 0 = no disease control relative to the controls) (Septoria nodorum): 78%
Test A disease control rating (100 = 100% disease control, 0 = no disease control relative to the controls) [1]: 0%
Test B disease control rating (100 = 100% disease control, 0 = no disease control relative to the controls) (Puccinia recondita): 64%

Cc1cc(OCCC(C)CC(C)(C)C)c(C)cc1N=CN(C)C (stereo not drawn) [Compound 11]
Test C disease control rating (100 = 100% disease control, 0 = no disease control relative to the controls) (Septoria nodorum): 100%
Test A disease control rating (100 = 100% disease control, 0 = no disease control relative to the controls) [1]: 97%
Test B disease control rating (100 = 100% disease control, 0 = no disease control relative to the controls) (Puccinia recondita): 100%

COC(=O)C(=Nc1cc(Cl)c(OCCC[Si](C)(C)C)cc1C)N(C)C [compound 130]
Test C disease control rating (100 = 100% disease control, 0 = no disease control relative to the controls) (Septoria nodorum): 0%
Test A disease control rating (100 = 100% disease control, 0 = no disease control relative to the controls) [1]: 100%
Test B disease control rating (100 = 100% disease control, 0 = no disease control relative to the controls) (Puccinia recondita): 97%

Cc1cc(NC(=S)N(C)C)c(C)c(Cl)c1OCCCC(C)(C)C [compound 138]
Test C disease control rating (100 = 100% disease control, 0 = no disease control relative to the controls) (Septoria nodorum): 60%
Test A disease control rating (100 = 100% disease control, 0 = no disease control relative to the controls) [1]: 98%
Test B disease control rating (100 = 100% disease control, 0 = no disease control relative to the controls) (Puccinia recondita): 74%

CCCCCCCOc1cc(C)c(N=CN(C)C)cc1C [Compound 21]
Test C disease control rating (100 = 100% disease control, 0 = no disease control relative to the controls) (Septoria nodorum): 96%
Test A disease control rating (100 = 100% disease control, 0 = no disease control relative to the controls) [1]: 98%
Test B disease control rating (100 = 100% disease control, 0 = no disease control relative to the controls) (Puccinia recondita): 100%

CCCN(C)C=Nc1cc(F)c(OCCC[Si](C)(C)C)cc1C [compound 60]
Test C disease control rating (100 = 100% disease control, 0 = no disease control relative to the controls) (Septoria nodorum): 100%
Test A disease control rating (100 = 100% disease control, 0 = no disease control relative to the controls) [1]: 100%
Test B disease control rating (100 = 100% disease control, 0 = no disease control relative to the controls) (Puccinia recondita): 100%

C=C(CCCOc1cc(C)c(N=CN(C)C)cc1C)C(C)C [Compound 9]
Test C disease control rating (100 = 100% disease control, 0 = no disease control relative to the controls) (Septoria nodorum): 97%
Test A disease control rating (100 = 100% disease control, 0 = no disease control relative to the controls) [1]: 98%
Test B disease control rating (100 = 100% disease control, 0 = no disease control relative to the controls) (Puccinia recondita): 100%

CC[Si](C)(C)CCCOc1cc(C)c(N=CN(C)C)cc1C [Compound 51]
Test C disease control rating (100 = 100% disease control, 0 = no disease control relative to the controls) (Septoria nodorum): 100%
Test A disease control rating (100 = 100% disease control, 0 = no disease control relative to the controls) [1]: 96%
Test B disease control rating (100 = 100% disease control, 0 = no disease control relative to the controls) (Puccinia recondita): 100%
